In patent publication US7915300B2, “Cysteine protease inhibitors” (Medivir AB, priority 2004, dated 2011) one finds Ki data, which are given here for two compounds.

Assay [1] addresses T1, cathepsin K (Homo sapiens, UniProt P43235).
T1 sequence (P43235 115-329): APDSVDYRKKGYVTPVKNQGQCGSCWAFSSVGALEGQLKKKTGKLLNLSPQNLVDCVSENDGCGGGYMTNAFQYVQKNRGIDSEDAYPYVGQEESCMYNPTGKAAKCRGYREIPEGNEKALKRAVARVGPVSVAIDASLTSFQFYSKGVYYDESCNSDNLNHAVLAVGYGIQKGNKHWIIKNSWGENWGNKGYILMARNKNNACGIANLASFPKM
Put plainly: Cathepsin K proteolytic activity, inhibition studies (Ki) with fluorogenic peptide substrate. Type of assay: biochemical. More on the design: made in house; host or cells: not fixed: E coli, Pichia or Baculovirus systems named as options. The note with it: side by side trials in the same assay system; read-out: Cathepsin K K^1. The protocol:
Convenient assays for cathepsin K are carried out using human recombinant enzyme, such as that described in PDB.
The recombinant cathepsin K can be expressed in a variety of commercially available expression systems including E coli, Pichia and Baculovirus systems. The purified enzyme is activated by removal of the prosequence by conventional methods.
Standard assay conditions for the determination of kinetic constants used a fluorogenic peptide substrate, typically H-D-Ala-Leu-Lys-AMC, and were determined in either 100 mM Mes/Tris, pH 7.0 containing 1 mM EDTA and 10 mM 2-mercaptoethanol or 100 mMNa phosphate, imM EDTA, 0.1% PEG4000 pH 6.5 or 100 mM Na acetate, pH 5.5 containing 5 mM EDTA and 20 mM cysteine, in each case optionally with […] as stabiliser. The enzyme concentration used was 5 nM. The stock substrate solution was prepared at 10 mM in DMSO. Screens were carried out at a fixed substrate concentration of 60 μM and detailed kinetic studies with doubling dilutions of substrate from 250 μM. The total DMSO concentration in the assay was kept below 3%. […] Product fluorescence (excitation at 390 nm, emission at 460 nm) was monitored with a Labsystems Fluoroskan Ascent fluorescent plate reader. […]
Potential inhibitors are screened using the above assay with variable concentrations of test compound. […] Ki values were calculated according to equation 1 […]

For assay [2], the target named is T1, cathepsin K. The note with it: value from WO 02057270; read-out: Ki indicated in WO 02057270; cited from earlier work.

Read-outs that look alike come from different tables or passages of the source.

With `CC(C)CC(NC(=O)c1ccc(Oc2ccccc2)cc1)C(=O)N1CC[C@H]2OCC(=O)[C@H]21` (stereo partly drawn), the results for the Ki on cathepsin K [1] and on cathepsin K [2] were 66 nM and 100 nM, respectively.

Turning to `CC(C)CC(NC(=O)c1ccc(Oc2ccccc2)cc1)C(=O)N1C[C@H](F)[C@H]2OCC(=O)[C@H]21` (stereo partly drawn), at cathepsin K [1], the Ki is 5.3 nM.
